Results as given in PubChem BioAssay AID1845198 (Molecular Pharmacology Branch, DTP, NCI, 2023).

System: 425362-245-T-J1 tumor spheroids, viability % test/control
Test: Anticancer human tumor 425362-245-T-J1 patient-derived melanoma cell line growth inhibition
Settings: spheroids with HUVEC and MSC; for IC50: curve of first compound; for viability, T/C: stronger effect = lower value
Summary of the method: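 Complex spheroids of malignant cells with endothelial cells and mesenchymal stem cells; agents alone or combined, from near clinical Cmax (or 10 microM if unknown) down in half-log steps, 0.25% DMSO final.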

[1] = second compound 30 pM, first compound 0.0316 µM
[2] = second compound 30 pM, first compound 0.1 µM
[3] = second compound 30 pM, first compound 0.316 µM
[4] = second compound 30 pM, first compound 1 µM
[5] = second compound 30 pM, first compound 3.16 µM
[6] = second compound 30 pM, first compound 10 µM
[7] = second compound 94.9 pM, first compound 0.0316 µM
[8] = second compound 94.9 pM, first compound 0.1 µM
[9] = second compound 94.9 pM, first compound 0.316 µM
[10] = second compound 94.9 pM, first compound 1 µM
[11] = second compound 94.9 pM, first compound 3.16 µM
[12] = second compound 94.9 pM, first compound 10 µM
[13] = second compound 0.0003 µM, first compound 0.0316 µM
[14] = second compound 0.0003 µM, first compound 0.1 µM
[15] = second compound 0.0003 µM, first compound 0.316 µM
[16] = second compound 0.0003 µM, first compound 1 µM
[17] = second compound 0.0003 µM, first compound 3.16 µM
[18] = second compound 0.0003 µM, first compound 10 µM
[19] = second compound 0.000949 µM, first compound 0.0316 µM
[20] = second compound 0.000949 µM, first compound 0.1 µM
[21] = second compound 0.000949 µM, first compound 0.316 µM
[22] = second compound 0.000949 µM, first compound 1 µM
[23] = second compound 0.000949 µM, first compound 3.16 µM
[24] = second compound 0.000949 µM, first compound 10 µM
[25] = second compound 0.003 µM, first compound 0.0316 µM
[26] = second compound 0.003 µM, first compound 0.1 µM
[27] = second compound 0.003 µM, first compound 0.316 µM
[28] = second compound 0.003 µM, first compound 1 µM
[29] = second compound 0.003 µM, first compound 3.16 µM
[30] = second compound 0.003 µM, first compound 10 µM
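Note: spheroids exposed to agents for 7 days.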
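Throughout, for viability, T/C: 100% = DMSO vehicle control viability.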

Row | Structure (SMILES) | IC50 (second compound 30 pM) [µM] | IC50 (second compound 94.9 pM) [µM] | IC50 (second compound 0.0003 µM) [µM] | IC50 (second compound 0.000949 µM) [µM] | IC50 (second compound 0.003 µM) [µM] | viability, T/C [1] [%] | viability, T/C [2] [%] | viability, T/C [3] [%] | viability, T/C [4] [%] | viability, T/C [5] [%] | viability, T/C [6] [%] | viability, T/C [7] [%] | viability, T/C [8] [%] | viability, T/C [9] [%] | viability, T/C [10] [%] | viability, T/C [11] [%] | viability, T/C [12] [%] | viability, T/C [13] [%] | viability, T/C [14] [%] | viability, T/C [15] [%] | other results
1 | CC(C)n1c(=O)n(C)c2cnc3cc(F)c(-c4ccc(OCCCN5CCCCC5)nc4)cc3c21 + COc1cc2c(cc1O)CCNC21CSC2c3c(OC(C)=O)c(C)c4c(c3C(COC1=O)N1C(O)C3Cc5cc(C)c(OC)c(O)c5C(C21)N3C)OCO4 | < 0.0316 | < 0.0316 | < 0.0316 | < 0.0316 | < 0.0316 | 14.8 | 30.2 | 13.3 | 14.8 | 11.2 | 5.34 | 12 | 9.68 | 5.43 | 6.03 | 6.79 | 4.33 | 3.13 | 2.75 | 1.61 | viability, T/C [16]: 1.81%; viability, T/C [17]: 1.68%; viability, T/C [18]: 1.23%; viability, T/C [19]: 0.2%; viability, T/C [20]: 0.2%; viability, T/C [21]: 0.19%; viability, T/C [22]: 0.63%; viability, T/C [23]: 0.35%; viability, T/C [24]: 0.15%; viability, T/C [25]: 0.18%; viability, T/C [26]: 0.19%; viability, T/C [27]: 0.17%; viability, T/C [28]: 0.12%; viability, T/C [29]: 0.12%; viability, T/C [30]: 0.23%
2 | CC1COCCN1c1cc(-c2ccnn2C)c2ccnc(-c3ccn[nH]3)c2n1 (stereo not given) + COc1cc2c(cc1O)CCNC21CSC2c3c(OC(C)=O)c(C)c4c(c3C(COC1=O)N1C(O)C3Cc5cc(C)c(OC)c(O)c5C(C21)N3C)OCO4 | < 0.0316 | < 0.0316 | < 0.0316 | < 0.0316 | < 0.0316 | 31.8 | 7.92 | 5.31 | 5.63 | 6.73 | 7.04 | 17.9 | 5 | 4.08 | 3.64 | 5.29 | 5.35 | 2.05 | 1.46 | 1.47 | viability, T/C [16]: 1.57%; viability, T/C [17]: 2.68%; viability, T/C [18]: 2.88%; viability, T/C [19]: 0.27%; viability, T/C [20]: 0.17%; viability, T/C [21]: 0.15%; viability, T/C [22]: 0.08%; viability, T/C [23]: 0.09%; viability, T/C [24]: 0.58%; viability, T/C [25]: 0.58%; viability, T/C [26]: 0.6%; viability, T/C [27]: 0.55%; viability, T/C [28]: 0.47%; viability, T/C [29]: 0.47%; viability, T/C [30]: 0.86%
3 | COc1cc(C)[nH]c(=O)c1CN1CCc2c(Cl)cc(C(OC)C3COC3)c(Cl)c2C1=O (stereo not given) + COc1cc2c(cc1O)CCNC21CSC2c3c(OC(C)=O)c(C)c4c(c3C(COC1=O)N1C(O)C3Cc5cc(C)c(OC)c(O)c5C(C21)N3C)OCO4 | > 10 | > 10 | 0.362 | < 0.0316 | < 0.0316 | 104 | 104 | 100 | 99.2 | 86.5 | 92.5 | 98.4 | 93.9 | 98.7 | 95.1 | 87 | 74.2 | 68 | 48.1 | 60.5 | viability, T/C [16]: 40.5%; viability, T/C [17]: 30.2%; viability, T/C [18]: 23.1%; viability, T/C [19]: 0.53%; viability, T/C [20]: 0.46%; viability, T/C [21]: 1.6%; viability, T/C [22]: 0.35%; viability, T/C [23]: 0.31%; viability, T/C [24]: 0.31%; viability, T/C [25]: 0.35%; viability, T/C [26]: 0.38%; viability, T/C [27]: 0.36%; viability, T/C [28]: 0.31%; viability, T/C [29]: 0.29%; viability, T/C [30]: 0.35%
4 | COc1ccc([C@@H](O)c2cc(-c3ncnc4cc(N5CCOCC5)ccc34)c(F)cc2Cl)nn1 + COc1cc2c(cc1O)CCNC21CSC2c3c(OC(C)=O)c(C)c4c(c3C(COC1=O)N1C(O)C3Cc5cc(C)c(OC)c(O)c5C(C21)N3C)OCO4 | 1.49 | 0.889 | < 0.0316 | < 0.0316 | < 0.0316 | 94.5 | 108 | 93.6 | 58.5 | 32.7 | 15.9 | 91 | 91.2 | 84.3 | 44.4 | 26.5 | 14.2 | 49.2 | 42.5 | 36.6 | viability, T/C [16]: 3.35%; viability, T/C [17]: 0.22%; viability, T/C [18]: 0.19%; viability, T/C [19]: 0.4%; viability, T/C [20]: 0.23%; viability, T/C [21]: 0.14%; viability, T/C [22]: 0.08%; viability, T/C [23]: 0.05%; viability, T/C [24]: 0.22%; viability, T/C [25]: 0.28%; viability, T/C [26]: 0.35%; viability, T/C [27]: 0.35%; viability, T/C [28]: 0.33%; viability, T/C [29]: 0.3%; viability, T/C [30]: 0.39%
5 | Cc1cc(C)c(CNC(=O)c2cc(-c3ccc(CN4CCOCC4)cc3)cc3c2cnn3C2CCCC2)c(=O)[nH]1 + COc1cc2c(cc1O)CCNC21CSC2c3c(OC(C)=O)c(C)c4c(c3C(COC1=O)N1C(O)C3Cc5cc(C)c(OC)c(O)c5C(C21)N3C)OCO4 | > 10 | > 10 | < 0.0316 | < 0.0316 | < 0.0316 | 81.9 | 97.4 | 97.5 | 102 | 85.7 | 61.4 | 84.3 | 87.3 | 92.9 | 88.2 | 81.9 | 64.3 | 44.9 | 40 | 59.9 | viability, T/C [16]: 39.5%; viability, T/C [17]: 34.4%; viability, T/C [18]: 25.5%; viability, T/C [19]: 0.31%; viability, T/C [20]: 0.35%; viability, T/C [21]: 0.34%; viability, T/C [22]: 0.33%; viability, T/C [23]: 0.21%; viability, T/C [24]: 0.26%; viability, T/C [25]: 0.3%; viability, T/C [26]: 0.32%; viability, T/C [27]: 0.3%; viability, T/C [28]: 0.25%; viability, T/C [29]: 0.25%; viability, T/C [30]: 0.26%
6 | [2H]c1nc(C)nc([2H])c1-c1cc(NC[C@@H](C)c2cccc3c(C(=O)NC)ccnc23)ncn1 + COc1cc2c(cc1O)CCNC21CSC2c3c(OC(C)=O)c(C)c4c(c3C(COC1=O)N1C(O)C3Cc5cc(C)c(OC)c(O)c5C(C21)N3C)OCO4 | > 10 | > 10 | 0.0727 | < 0.0316 | < 0.0316 | 91.2 | 106 | 100 | 101 | 90.8 | 92.1 | 89.7 | 90.1 | 92.3 | 91.5 | 83.1 | 82.5 | 51 | 54.6 | 43.2 | viability, T/C [16]: 40.4%; viability, T/C [17]: 50.2%; viability, T/C [18]: 41.5%; viability, T/C [19]: 0.44%; viability, T/C [20]: 0.45%; viability, T/C [21]: 1.41%; viability, T/C [22]: 0.35%; viability, T/C [23]: 0.23%; viability, T/C [24]: 0.31%; viability, T/C [25]: 0.18%; viability, T/C [26]: 0.2%; viability, T/C [27]: 0.14%; viability, T/C [28]: 0.12%; viability, T/C [29]: 0.13%; viability, T/C [30]: 0.25%
